Laboratory results taken from patent publication US20190307740A1, “COMPOSITIONS AND METHODS FOR TREATMENT RELATED TO FALL AND FALL FREQUENCY IN NEURODEGENERATIVE DISEASES” (Neurocea, LLC, priority 2016, published 2019).

Tests used:
[1] = system: subjects with idiopathic PD with LIDs
Excerpt: (§1) This post hoc analysis was inclusive of patients having baseline scores of […] for each of UPDRS Part II Question 13, Part II Question 14, and Part III Item 30.
(§2) The original UPDRS scale was used. […] In the UPDRS Part II, Question 13 is on Falling unrelated to Freezing. […] In Part II, Question 14 is on Freezing when Walking. This is a 5-point item and has two variables freezing and falls. […] Questions 13 and 14 were compared separately (Table 11).
(§3) For falls (UPDRS Part II, Question 13), a 5-point scale was used: 0: No falls to 4: falls more than once per day. For FOG and falls related to FOG (Question 14), a 5-point scale was used: 0: No FOG to 3 or 4: frequent falls from FOG. […] Analysis utilized Fisher's exact 2-tailed test. Improvement or worsening over baseline was calculated from the last treatment visit (Table 11).
(§4) This post hoc analysis was inclusive of patients having screening and/or baseline scores of greater than 0 for each of UPDRS Part II Question 13, Part II Question 14, and Part III Item 30.
Question 13—Falling Unrelated to Freezing • 0=None; • 1=Rare falling; • 2=Occasionally falls, less than once per day; • 3=Falls an average of once daily; • 4=Falls more than once daily.
(§5) For the purposes of this alternative post hoc analysis, only patients having a screening or baseline score of 2 or more, i.e., occasional freezing when walking or occasional falls, less than once per day, were considered to have experienced episodes of freezing and/or falling. Additionally, scores of patients with a screening or baseline score of 1 were set to 0, i.e., no freezing when walking or no falls. All patients were included in the analysis regardless of their status during the study, with the last observation carried forward.

[2] = system: subjects with idiopathic PD with LIDs; remark: listed apart in the source
Excerpt: as §1, §2, §3
Question 14—Freezing of Walking • 0=None; • 1=Rare freezing when walking, may have start hesitation; • 2=Occasional freezing when walking; • 3=Frequent freezing, occasionally falls from freezing; • 4=Frequent falls from freezing.
as §5

[3] = system: subjects with idiopathic PD with LIDs; remark: listed apart in the source
Excerpt: as §1, §2, §4

[4] = oral capsules
[5] = baseline to week 10, of 30 patients
[6] = baseline to week 10, of 30 patients, negative = improvement
[7] = of 30 patients, p=0.004 vs placebo

CN1CCCC1c1cccnc1.O=C(O)C(O)C(O)C(=O)O (stereo not drawn) [NP002, Nicotine Bitartrate]
falling vs placebo at week 10 ([1]; Question 13 score of 2 or greater at screening or baseline, Wilcoxon-Mann-Whitney p=0.3250): directional signal towards reduced falling
patients with either a reduction or absence of falls ([1]; active phase of the study): ~87%
Falls (Question 13): patients with No Change [1, 5]: 15
Falls (Question 13): patients with change +1 [1, 5]: 1
Falls (Question 13): patients with change +2 [1, 5]: 0
Falls (Question 13): patients with change +3 [1, 5]: 0
Falls (Question 13): patients with change −1 [1, 5]: 7
Falls (Question 13): patients with change −2 [1, 5]: 5
Falls (Question 13): patients with change −3 [1, 6]: 2
patients with no falls during the study ([1]; number of 30 patients): 12
patients with a reduction in falls [1, 7]: 47%
improvement in falling vs placebo at week 10 ([1]; score >0 at screening/baseline, Fisher's exact test p=0.057): statistically significant improvement in falling
patients who reported fewer falls (UPDRS Part II, Question 13) ([1]; screening and/or baseline score >0, follow-up to visit 3 or 4): 14 of 15
improvement in freezing vs placebo at week 10 ([2]; Question 14 score of 2 or greater at screening or baseline, Cochran-Mantel-Haenszel p=0.0476): statistically significant improvement in freezing
patients with either a reduction or absence of FOG ([2]; active phase of the study): ~73%
FOG (Question 14): patients with No Change [2, 5]: 17
FOG (Question 14): patients with change +1 [2, 5]: 1
FOG (Question 14): patients with change +2 [2, 5]: 0
FOG (Question 14): patients with change +3 [2, 5]: 0
FOG (Question 14): patients with change −1 [2, 5]: 10
FOG (Question 14): patients with change −2 [2, 5]: 2
FOG (Question 14): patients with change −3 [2, 6]: 0
patients with no FOG during the study ([2]; number of 30 patients): 10
patients with a reduction in FOG [2, 7]: 40%
Pull Test (Item 30): patients with No Change [3, 5]: 19
Pull Test (Item 30): patients with change +1 [3, 5]: 1
Pull Test (Item 30): patients with change +2 [3, 5]: 0
Pull Test (Item 30): patients with change +3 [3, 5]: 0
Pull Test (Item 30): patients with change −1 [3, 5]: 5
Pull Test (Item 30): patients with change −2 [3, 5]: 5
Pull Test (Item 30): patients with change −3 [3, 6]: 0
patients with improvement in postural stability (pull test) ([3]; patients with screening and/or baseline score >0, p=0.054 vs placebo): 9 of 24
time until plasma concentration of nicotine returns close to baseline [4]: approximately 6 hours
